Measurements taken from patent publication US20210275692A1, “SOLUTION COMPRISING FLUORESCENT DYE AS FIDUCIAL MARKER” (DANMARKS TEKNISKE UNIVERSITET, priority 2018, published 2021).

Test: Spectroscopic characterization of SSIB-Cy7.5 in SAIB or LOIB markers
Format: physicochemical
Conditions: 0.01% w/w in LOIB:xSAIB:EtOH:D&Cv2

Row | Compound | broad emission peak centre
1 | 6′-(Cyanine 7.5)-Isobutyric Sucrose [SSIB-Cy7.5] | 845 nm

Same assay, conditions: SAIB:xSAIB:EtOH 70:10:20

Row | Compound | dye concentration up to which emission intensity increased (then self-quenching)
2 | 6′-(Cyanine 7.5)-Isobutyric Sucrose [SSIB-Cy7.5] | 0.003 % w/w

Same assay, conditions: UVvis in LOIB:xSAIB:EtOH:D&Cv2; 0.1% w/w D&Cv2, 0.01% w/w SSIB-Cy7.5

Row | Compound | absorption peak
3 | Cc1ccc(Nc2ccc(O)c3c2C(=O)c2ccccc2C3=O)cc1 [D&Cv2] | 590 nm

Test: UVvis maximum absorption wavelength of selected dyes (Table 1)
Format: physicochemical
Conditions: source not stated

Row | Compound | UVvis maximum
4 | CCC1=C(CC)c2cc3[nH]c(cc4nc(cc5[nH]c(cc1n2)c(CC)c5CC)C(CC)=C4CC)c(CC)c3CC [2,3,7,8,12,13,17,18-Octaethyl-21H,23H-porphine] | 401 nm
5 | CCCCOc1c2c(c(OCCCC)c3ccccc13)-c1nc-2nc2[nH]c(nc3nc(nc4[nH]c(n1)c1c(OCCCC)c5ccccc5c(OCCCC)c41)-c1c-3c(OCCCC)c3ccccc3c1OCCCC)c1c(OCCCC)c3ccccc3c(OCCCC)c21 [5,9,14,18,23,27,32,36-Octabutoxy-2,3-naphthalocyanine] | 784 nm
6 | CC(C)(C)c1ccc2c(c1)-c1nc3nc(nc4[nH]c(nc5[nH]c(nc-2n1)c1cc(C(C)(C)C)ccc51)c1cc(C(C)(C)C)ccc41)-c1ccc(C(C)(C)C)cc1-3 [2,9,16,23-Tetra-tert-butyl-29H,31H-phthalocyanine] | 696 nm
7 | CCCCOc1ccc(OCCCC)c2c1-c1nc3nc(nc4[nH]c([nH]c5nc(nc-2n1)-c1c(OCCCC)ccc(OCCCC)c1-5)c1c(OCCCC)ccc(OCCCC)c41)-c1c(OCCCC)ccc(OCCCC)c1-3 [1,4,8,11,15,18,22,25-Octabutoxy-29H,31H-phthalocyanine] | 762 nm
8 | c1ccc2c(c1)-c1nc-2nc2[nH]c(nc3nc(nc4[nH]c(n1)c1ccccc41)-c1ccccc1-3)c1ccccc21 [Phthalocyanine] | 698 nm
9 | CCCCCCCCOc1cc2c(cc1OCCCCCCCC)-c1nc-2nc2[nH]c(nc3nc(nc4[nH]c(n1)c1cc(OCCCCCCCC)c(OCCCCCCCC)cc41)-c1cc(OCCCCCCCC)c(OCCCCCCCC)cc1-3)c1cc(OCCCCCCCC)c(OCCCCCCCC)cc21 [2,3,9,10,16,17,23,24-Octakis(octyloxy)-29H,31H-phthalocyanine] | 701 nm
10 | C1=Cc2nc1c(-c1ccccc1)c1ccc([nH]1)c(-c1ccccc1)c1nc(c(-c3ccccc3)c3ccc([nH]3)c2-c2ccccc2)C=C1 [5,10,15,20-Tetraphenyl-21H,23H-porphine] | 514 nm
11 | C#CCNC(=O)CCCCCN1/C(=C/C=C2C=C(/C=C/C3=[N+](C)c4ccc5ccccc5c4C3(C)C)CCC/2)C(C)(C)c2c1ccc1ccccc21.[Cl-] [Cy7.5-alkyne] | 788 nm
12 | C#CCNC(=O)CCCCCN1C(=CC=CC=CC2=[N+](C)c3ccc4ccccc4c3C2(C)C)C(C)(C)c2c1ccc1ccccc21.[Cl-] [Cy5.5-alkyne] | 684 nm
13 | 2,11,20,29-Tetra-tert-butyl-2,3-naphthalocyanine | 712 nm
14 | C#CCNC(=O)CCCCCN1C(=CC=CC=CC2=[N+](C)c3ccccc3C2(C)C)C(C)(C)c2ccccc21.[Cl-] [Cy5-alkyne] | 646 nm
15 | Cy7-alkyne | 750 nm
